The record followed here is doi:10.1101/2025.05.27.656499v1 (biorxiv, 2025).

human CD28 Protein, His Tag, sequence (P10747 19-152): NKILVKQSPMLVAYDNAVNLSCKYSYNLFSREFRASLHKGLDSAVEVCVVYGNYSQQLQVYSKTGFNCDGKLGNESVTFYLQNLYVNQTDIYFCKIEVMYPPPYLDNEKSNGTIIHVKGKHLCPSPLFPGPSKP

The target in one assay is Biotinylated human CD28 protein (His-tagged, AviTag) (Homo sapiens, UniProt P10747). The experiment in a line: SPR. Format: binding.
Biotinylated human CD28 protein (His-tagged, AviTag), sequence (P10747 19-152 limits assumed): as the sequence (P10747 19-152) above
In general, Kd refers to the concentration at which binding is half-saturated. A low value points to a tighter complex. Take `Cc1nc(C#Cc2ccnc(Cl)c2)c(C)n1-c1ccc(OC(F)(F)F)cc1` [2B10, CTEP]: binding was characterised by a dissociation constant (Kd) of 181 ± 53 µM.

The next assay concerns the target human CD28 Protein, His Tag (Homo sapiens, UniProt P10747). The experiment in a line: MST / TRIC. Type of assay: binding.
On to `O=C(Cc1ccccc1)c1cc(O)c(O)c([N+](=O)[O-])c1` [1F19, Nebicapone], for which the affinity, expressed as Kd, was 45.1 ± 68.9 µM.

`CCN(CC)C(=O)/C(C#N)=C/c1cc(O)c(O)c([N+](=O)[O-])c1` [1I03, Entacapone] yielded a dissociation constant Kd of 45.6 ± 52.1 µM.

For the molecule `CN1c2ccc([N+](=O)[O-])cc2N=C(c2ccc(C(=O)O)cc2)c2cc3c(cc21)C(C)(C)CCC3(C)C` [1K19, HX531], the Kd was 245 ± 151 µM.

Take `Nc1c(C(=O)O)c2nc3c(C(=O)O)cccc3oc-2cc1=O` [1O03, Cinnabarinic acid]: the Kd came out at 14.6 ± 8.23 µM.

With `CNc1nc2ccccc2n2c(-c3ccc(O)c(O)c3)cnc12` [2B06, EAPB 02303], the affinity, expressed as Kd, was 8.37 ± 4.42 µM.

On to `Cc1nc(C#Cc2ccnc(Cl)c2)c(C)n1-c1ccc(OC(F)(F)F)cc1` [2B10, CTEP], for which binding was put at a Kd of 236 ± 110 µM. Compared with the last molecule, the Kd is about 28-fold higher.

`CC(C)=CCC/C(C)=C/CC/C(C)=C/C=C/C(C)=C/C(=O)O` [2L10, Peretinoin] registered a dissociation constant (Kd) of 283 ± 398 µM.
